Read-outs that look alike come from different tables or passages of the source.
Tests used:
[1] = test system: HeLa cervical adenocarcinoma cells; experiment: MTT antiproliferative assay, HeLa; type: cell-based; conditions: Homo sapiens
Protocol: (§1) Human T-cell leukemia cell line Jurkat (ATCC TIB-152, E6-1 clone) was cultured in RPMI-1640 (Invitrogen) supplemented with 10% FBS (Invitrogen), 100 mg/L penicillin G, 100 mg/L streptomycin, 1.0 mM sodium pyruvate, 1.5 g/L sodium bicarbonate, and 4.5 g/L glucose (all from Sigma). Human cervical cancer cell line HeLa (ATCC S3) was cultured in DMEM (Invitrogen) supplemented with 10% FBS, 100 mg/L penicillin G, and 100 mg/L streptomycin. MCF-7 (human mammary carcinoma) cells were cultured in DMEM supplemented with 1.0 mM sodium pyruvate, 1% GlutaMax™-1 (Invitrogen), 100 μg/mL penicillin, 100 μg/mL streptomycin, and 10% FBS. Human uterine sarcoma MES-SA and MES-SA/Dx5 cells were cultured in RPMI-1640 medium supplemented with 10% FBS, 100 mg/L penicillin G and 100 mg/L streptomycin. All cells were incubated at 37° C. in a humidified atmosphere with 5% CO2. The other cell lines were maintained in a similar fashion as previously described.
(§2) To evaluate antiproliferative properties of the compounds of Formula I, mitochondrial dehydrogenase activities were measured using the MTT assay. The cell lines were prepared by trypsinizing and seeding […] cells per well into microplates. All compounds were reconstituted in dimethyl sulfoxide (DMSO) at a concentration of either 100 mM or 25 mM prior to treatment. The cells were grown for 24 hrs before treatment at concentrations ranging from 0.004 to 100 microM and incubated for 48 hrs in 200 microL media. 20 microL of MTT reagent in serum free medium (5 mg/mL) was added to each well and incubated further for 2 hrs. Media was removed and the resulting formazan crystals were re-solubilized in 100 microL of DMSO and the optical density (OD) was measured using a Thermomax Molecular Device plate reader at a wavelength of 490 nm. The experiments were performed in quadruplicate and repeated at least twice for each compound per cell line. Cells treated with 0.1% DMSO were used as a negative control, while phenyl arsine oxide (PAO) was used as a positive killing control.
(§3) Human cancer cell lines were obtained from the American Type Culture Collection (ATCC, Manassas, Va., USA), the European Collection of Cell Culture (ECACC, Salisbury, UK) and the Deutsche Sammlung von Mikroorganismen and Zellkulturen (DSMZ, Braunschweig, Germany). Human cervical adenocarcinoma HeLa cells were cultured in DMEM supplemented with 10% fetal bovine serum (FBS). Human mammary carcinoma MCF-7 cells were cultured in RPMI supplemented with 10% FBS. The U87 and U373 cells were cultured in DMEM culture medium (Lonza code 12-136F, Vervier, Belgium), while the SKMEL-28 and A549 cells were cultured in RPMI culture medium (Lonza; code 12-115F) supplemented with 10% heat-inactivated FBS (Lonza, FBS South America code DE14-801F). […] All cell lines were cultured in T25 flasks, maintained and grown at 37° C., 95% humidity, 5% CO2.
(§4) To evaluate antiproliferative properties of the synthesized compounds, the MTT assay was used. The cell lines were assessed by trypsinizing each cell line and seeding 4×10^3 cells per well into 96-well plates. All compounds were dissolved in DMSO at a concentration of either 100 mM or 50 mM prior to cell treatment. The cells were grown for 24 h and then treated with compounds at concentrations ranging from 0.04 to 100 μM and incubated for 48 h in 200 μL media. 20 μL of MTT reagent in serum free medium (5 mg/mL) was added to each well and incubated further for 2 h. Media was removed, and the resulting formazan crystals were re-solubilized in 200 μL of DMSO. A490 was measured using a Thermomax Molecular Device plate reader. The experiments were performed in quadruplicate and repeated at least twice for each compound per cell line. Cells treated with 0.1% DMSO were used as a control, and 1 μM phenyl arsine oxide (PAO) was used as a positive killing control.

[2] = test system: MCF-7 mammary gland adenocarcinoma cells; experiment: MTT antiproliferative assay, MCF-7; type: cell-based; conditions: Homo sapiens
Protocol: as §1, §2, §3, §4

[3] = Table 5, 48 h, MTT, ± SD, read-out: cell viability GI50, HeLa
[4] = MCF7, Table 5, 48 h, MTT, ± SD, read-out: cell viability GI50, MCF-7
[5] = Table 1, 48 h treatment, MTT, ± SD, read-out: GI50 in vitro Values, HeLa
[6] = MCF7, Table 1, 48 h treatment, MTT, ± SD, read-out: GI50 in vitro Values, MCF-7

| GI50 [1, 3] [nM] | GI50 [2, 4] [nM] | GI50 [1, 5] [nM] | GI50 [2, 6] [nM] | SMILES | further results |
| --- | --- | --- | --- | --- | --- |
|  |  | 888 ± 61 | 1260 ± 180 | O=C(c1ccccc1)c1[nH]c2[nH]cnc(=O)c2c1-c1cccnc1 [Rig41, 6-Benzoyl-5-(pyridin-3-yl)-1H-pyrrolo[2,3-d]pyrimidin-4(7H)-one] |  |
|  |  | 100 ± 70 | 60 ± 20 | O=C(c1ccccc1)c1[nH]c2[nH]cnc(=O)c2c1-c1cccc(Cl)c1 [Rig34, 6-Benzoyl-5-(3-chlorophenyl)-1H-pyrrolo[2,3-d]pyrimidin-4(7H)-one] |  |
|  |  | 8000 ± 1000 | 40000 ± 4000 | COc1cc(-c2c(C(=O)c3ccccc3)[nH]c3[nH]cnc(=O)c23)cc(I)c1OC [Rig31, 6-Benzoyl-5-(3-iodo-4,5-dimethoxyphenyl)-1H-pyrrolo[2,3-d]pyrimidin-4(7H)-one] |  |
|  |  | 187 ± 9 | 251 ± 17 | N#Cc1cccc(-c2c(C(=O)c3ccccc3)[nH]c3[nH]cnc(=O)c23)c1 [Rig43, 3-(6-Benzoyl-4-oxo-4,7-dihydro-1H-pyrrolo[2,3-d]pyrimidin-5-yl)benzonitrile] |  |
|  |  | 7000 ± 1000 | 10000 ± 5000 | COc1cc(-c2c(C(=O)c3ccccc3)[nH]c3[nH]cnc(=O)c23)cc(Br)c1OC [Rig32, 6-Benzoyl-5-(3-bromo-4,5-dimethoxyphenyl)-1H-pyrrolo[2,3-d]pyrimidin-4(7H)-one] |  |
|  |  | 130 ± 50 | 60 ± 20 | O=C(c1ccccc1)c1[nH]c2[nH]cnc(=O)c2c1-c1cccc(Br)c1 [Rig33, 6-Benzoyl-5-(3-bromophenyl)-1H-pyrrolo[2,3-d]pyrimidin-4(7H)-one] |  |
|  |  | 4880 ± 70 | 2200 ± 300 | O=C(c1ccccc1)c1[nH]c2[nH]cnc(=O)c2c1-c1c(Cl)cccc1Cl [Rig40, 6-Benzoyl-5-(2,6-dichlorophenyl)-1H-pyrrolo[2,3-d]pyrimidin-4(7H)-one] |  |
|  |  | 200 ± 100 | 150 ± 60 | O=C(c1ccccc1)c1[nH]c2[nH]cnc(=O)c2c1-c1cccc(I)c1 [Rig36, 6-Benzoyl-5-(3-iodophenyl)-1H-pyrrolo[2,3-d]pyrimidin-4(7H)-one] |  |
|  |  | 303 ± 5 | 261 ± 50 | O=C(c1ccc(O)cc1)c1[nH]c2[nH]cnc(=O)c2c1-c1ccccc1 [Rig45, 6-(4-Hydroxybenzoyl)-5-phenyl-1H-pyrrolo[2,3-d]pyrimidin-4(7H)-one] |  |
|  |  | 860 ± 60 | 1100 ± 120 | O=C(c1ccccc1)c1[nH]c2[nH]cnc(=O)c2c1-c1cccc(O)c1 [Rig42, 6-Benzoyl-5-(3-hydroxyphenyl)-1H-pyrrolo[2,3-d]pyrimidin-4(7H)-one] |  |

Further lines, the molecule ahead of its results:

| SMILES | GI50 [1, 3] [nM] | GI50 [2, 4] [nM] | GI50 [1, 5] [nM] | GI50 [2, 6] [nM] | further results |
| --- | --- | --- | --- | --- | --- |
| CCc1nc(=O)c2c(-c3ccccc3)c(C(=O)c3ccccc3)[nH]c2[nH]1 [Compound 12] | 920 ± 110 | 1100 ± 100 |  |  |  |
| O=C(c1ccc(Br)cc1)c1[nH]c2[nH]cnc(=O)c2c1-c1cc(Br)cc(Br)c1 [Rig14, 6-(4-Bromobenzoyl)-5-(3,5-dibromophenyl)-1H-pyrrolo[2,3-d]pyrimidin-4(7H)-one] |  |  | 2000 ± 1000 | 600 ± 100 |  |
| O=C(c1ccc(F)cc1)c1[nH]c2[nH]cnc(=O)c2c1-c1cc(Br)cc(Br)c1 [Rig13, 5-(3,5-Dibromophenyl)-6-(4-fluorobenzoyl)-1H-pyrrolo[2,3-d]pyrimidin-4(7H)-one] |  |  | 6000 ± 1000 | 800 ± 10 |  |
| O=C(c1ccccc1)c1[nH]c2[nH]c(-c3ccccc3)nc(=O)c2c1-c1ccccc1 [Compound 3, 6-Benzoyl-2-phenyl-5-phenyl-1H-pyrrolo[2,3-d]pyrimidin-4(7H)-one] | > 50000 | > 50000 |  |  |  |
| O=C(c1ccccc1)c1[nH]c2[nH]cnc(=O)c2c1-c1cccc(Br)n1 [Rig30, 6-Benzoyl-5-(6-bromopyridin-2-yl)-1H-pyrrolo[2,3-d]pyrimidin-4(7H)-one] |  |  | 150 ± 50 | 135 ± 75 |  |
| O=C(c1ccc(OCc2ccccc2)cc1)c1[nH]c2[nH]cnc(=O)c2c1-c1cc(Br)cc(Br)c1 [Rig11, 6-(4-(Benzyloxy)benzoyl)-5-(3,5-dibromophenyl)-1H-pyrrolo[2,3-d]pyrimidin-4(7H)-one] |  |  | 400 ± 10 | 310 ± 10 |  |
| O=C(c1ccccc1)c1[nH]c2[nH]c(CF)nc(=O)c2c1-c1ccccc1 [Compound 14] | 3000 ± 200 | 3200 ± 200 |  |  |  |
| O=C(c1ccccc1)c1[nH]c2[nH]c(C(F)F)nc(=O)c2c1-c1ccccc1 [Compound 15, 6-Benzoyl-2-(difluoromethyl)-5-phenyl-1H-pyrrolo[2,3-d]pyrimidin-4(7H)-one] | 5100 ± 200 | 4200 ± 500 |  |  |  |
| O=C(c1ccccc1)c1[nH]c2[nH]c(-c3cccnc3)nc(=O)c2c1-c1ccccc1 [Compound 4] | > 50000 | > 50000 |  |  |  |
| O=C(c1ccccc1)c1[nH]c2[nH]c(=O)[nH]c(=O)c2c1-c1ccccc1 [Compound 2] | > 50000 | > 50000 |  |  |  |
| CCCCc1nc(=O)c2c(-c3ccccc3)c(C(=O)c3ccccc3)[nH]c2[nH]1 [Compound 11, 6-Benzoyl-2-butyl-5-phenyl-1H-pyrrolo[2,3-d]pyrimidin-4(7H)-one] | 340 ± 10 | 230 ± 10 |  |  |  |
| COc1ccc(C(=O)c2[nH]c3[nH]cnc(=O)c3c2-c2cc(Br)cc(Br)c2)cc1 [Rig10, 5-(3,5-Dibromophenyl)-6-(4-methoxybenzoyl)-1H-pyrrolo[2,3-d]pyrimidin-4(7H)-one] |  |  | 300 ± 70 | 110 ± 35 |  |
| O=C(c1ccccc1)c1[nH]c2[nH]c(C(F)(F)F)nc(=O)c2c1-c1ccccc1 [Compound 16, 6-Benzoyl-5-phenyl-2-(trifluoromethyl)-1H-pyrrolo[2,3-d]pyrimidin-4(7H)-one] | 21500 ± 400 | 21100 ± 1100 |  |  |  |
| COc1ccc(C(=O)c2[nH]c3[nH]cnc(=O)c3c2-c2cc(OC)c(OC)c(OC)c2)cc1 [Rig19, 6-(4-Methoxybenzoyl)-5-(3,4,5-trimethoxyphenyl)-1H-pyrrolo[2,3-d]pyrimidin-4(7H)-one] |  |  |  |  | GI50 ([1]; 48 h, read-out: GI50 in vitro Values, HeLa): > 100000 nM; GI50 ([2]; MCF7, 48 h, read-out: GI50 in vitro Values, MCF-7): 7000 ± 1000 nM |
| CCOC(=O)c1nc(=O)c2c(-c3ccccc3)c(C(=O)c3ccccc3)[nH]c2[nH]1 [Compound 7] | > 50000 | > 50000 |  |  |  |
| CCOC(=O)CCc1nc(=O)c2c(-c3ccccc3)c(C(=O)c3ccccc3)[nH]c2[nH]1 [Compound 10, 6-Benzoyl-2-(2-ethoxycarbonylethyl)-5-phenyl-1H-pyrrolo[2,3-d]pyrimidin-4(7H)-one] | 780 ± 50 | 930 ± 70 |  |  |  |
